For data set [1], the target named is T1, hERG (Homo sapiens, UniProt Q12809). The data set is described as follows: Whole-cell patch-clamp, protective effect of 10:0-18:0 Lyso PG and 14:0 EGPG against hERG inhibition by Nilotinib. Also on record: expressed in transfected cells; host or cells: HEK 293, stably transfected with the hERG gene (HEK-hERG). The note with it: for protective effect against hERG inhibition by Nilotinib (in words): PLs/Nilo ratio 9:1; for inhibition of the hERG tail current (in words): lipid alone or Nilotinib 0.5 μg/mL formulated with lipid […] (9:1). Format: cell-based. As to the method: The purpose of this study is to evaluate in vitro the protective effect of 10:0 Lyso PG, 12:0 Lyso PG, 14:0 Lyso PG, 16:0 Lyso PG, 18:0 Lyso PG and 14:0 EGPG on the rapidly activating delayed-rectifier potassium selective current (IK) generated under normoxic conditions in stably transfected Human Embryonic Kidney cells (HEK 293 cells).
T1 sequence (Q12809 whole entry): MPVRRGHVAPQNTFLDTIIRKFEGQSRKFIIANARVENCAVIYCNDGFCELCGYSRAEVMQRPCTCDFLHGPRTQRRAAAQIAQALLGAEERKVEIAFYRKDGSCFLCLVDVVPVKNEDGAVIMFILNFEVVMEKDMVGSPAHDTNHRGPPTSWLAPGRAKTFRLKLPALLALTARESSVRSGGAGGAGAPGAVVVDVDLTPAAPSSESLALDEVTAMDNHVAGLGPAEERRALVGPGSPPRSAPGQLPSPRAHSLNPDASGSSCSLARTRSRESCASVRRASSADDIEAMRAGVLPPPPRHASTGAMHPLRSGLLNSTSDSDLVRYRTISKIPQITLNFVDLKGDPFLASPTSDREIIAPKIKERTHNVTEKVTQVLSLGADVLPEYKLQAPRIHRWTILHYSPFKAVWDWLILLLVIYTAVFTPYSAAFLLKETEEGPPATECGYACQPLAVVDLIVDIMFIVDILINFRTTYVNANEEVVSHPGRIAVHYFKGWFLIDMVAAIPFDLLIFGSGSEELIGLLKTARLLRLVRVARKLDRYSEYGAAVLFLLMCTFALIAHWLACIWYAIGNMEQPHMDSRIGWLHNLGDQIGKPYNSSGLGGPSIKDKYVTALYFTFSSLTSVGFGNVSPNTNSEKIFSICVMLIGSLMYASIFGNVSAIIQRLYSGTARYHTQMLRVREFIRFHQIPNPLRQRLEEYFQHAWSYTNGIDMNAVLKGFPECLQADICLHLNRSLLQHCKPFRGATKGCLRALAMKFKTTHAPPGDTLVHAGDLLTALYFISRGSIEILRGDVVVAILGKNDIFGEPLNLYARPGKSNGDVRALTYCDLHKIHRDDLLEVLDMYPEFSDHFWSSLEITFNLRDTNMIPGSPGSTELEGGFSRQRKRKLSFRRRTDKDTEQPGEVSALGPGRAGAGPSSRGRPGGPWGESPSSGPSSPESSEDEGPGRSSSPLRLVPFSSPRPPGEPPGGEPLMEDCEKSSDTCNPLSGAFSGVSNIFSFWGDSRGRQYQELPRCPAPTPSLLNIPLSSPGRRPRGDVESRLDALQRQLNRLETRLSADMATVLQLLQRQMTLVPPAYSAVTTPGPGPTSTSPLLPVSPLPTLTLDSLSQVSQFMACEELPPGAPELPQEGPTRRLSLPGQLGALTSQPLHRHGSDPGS
The test samples were prepared as follows. […] The solution was vortexed for 10 minutes before being used in the patch-clamp assay.
Test performed: Whole-cell patch-clamp current acquisition and analysis. Temperature: 35±2° C. Original data acquisition design: Acquisition Rate(s): 1.0 kHz.
Patch-clamp current recording. […] Isolated cells were plated into 2-mL experimental chambers, mounted on the platform of an inverted microscope. The cells were superfused with external solution (in mM: NaCl 140.0, KCl 5.0, CaCl2 1.8, MgCl2 1.0, HEPES 10.0, dextrose 10.0, pH 7.4±0.05). A 2-10 MΩ resistance pipette was filled with the pipette solution (in mM: KCl 140.0, MgCl2 1.0, Mg-ATP 4.0, EGTA 5.0, HEPES 10.0, sucrose 10.0, pH 7.4±0.05), and brought to contact the external membrane of a single cell.
Application of test samples: 5 minutes of exposure to each concentration in presence of closed circuit perfusion (2 mL/min). 5 minutes for washout periods in presence of a flow-through perfusion (2 mL/min) in addition to a closed circuit perfusion (2 mL/min). […] Cells were under continuous stimulation of the pulses protocol throughout the studies and cell currents were recorded after 5 minutes of exposure to each condition.
Statistical analysis: Statistical comparisons were made using paired Student's t-tests, comparing each treatment period with its corresponding value at the baseline condition. The currents recorded after the exposure of each test sample were compared to the currents recorded in baseline conditions. Differences were considered significant when p≤0.05.
Effect of the Test Samples on whole-cell IKr hERG currents. Whole-cell currents elicited during a voltage pulse were recorded in baseline conditions and following the application of the selected concentration of test sample. The cells were depolarized for one second from the holding potential (−80 mV) to a maximum value of +40 mV, starting at −40 mV and progressing in 10 mV increments. The membrane potential was then repolarized to −55 mV for one second, and finally returned to −80 mV.
Whole-cell tail current amplitude was measured at a holding potential of −55 mV, following activation of the current from −40 to +40 mV. Current amplitude was measured at the maximum (peak) of this tail current. Current density was obtained by dividing current amplitude by cell capacitance measured prior to capacitive transient minimization.
Current run-down and solvent effect correction. All data points presented in this example were corrected for solvent effect and time-dependent current run-down. Current run-down and solvent effects were measured simultaneously by applying the study design in test sample-free conditions over the same time frame as was done with the test sample. The loss in current amplitude measured during these so-called vehicle studies (representing both solvent effects and time-dependent run-down) was subtracted from the loss of amplitude measured in the presence of the test sample to isolate the effect of the test sample, apart from the effect of the solvent and the inevitable run-down in current amplitude over time.
On the technique in general: Patch clamp records ionic current or voltage across a cell membrane.

For data set [2], the target named is T1, hERG. The data set is described as follows: Whole-cell patch-clamp, protective effect of DMPC, DMPG, DMPC/DMPG, LysoPG and LysoPC against hERG inhibition by Nilotinib. The note with it: for inhibition of the hERG tail current density (in words) / Corrected Normalized Current Density / Normalized Current Density: HEK 293; for inhibition of the hERG tail current density (in words): lipid alone or Nilotinib 0.1 μM formulated in aqueous solution with lipid; for Corrected Normalized Current Density: corrected for solvent effect and current run-down, baseline 1.000; for Corrected Normalized Current Density / Normalized Current Density: Nilotinib 0.1 μM (alone in DMSO, with lipid in aqueous solution), 14:0 LysoPG […]; for Normalized Current Density: hERG tail current density relative to baseline 1.000, 5 min exposure; for protection against hERG inhibition caused by Nilotinib (in words): in vitro, co-formulated with Nilotinib.

The next data set relates to Male Hartley guinea pigs. Kind of data set: Moxifloxacin-induced QTc prolongation in guinea pigs, oral phospholipids. Format: in vivo, guinea pig. Conditions: for mitigation of MF-induced QT prolongation (in words): oral gavage 2 hours before 20 mg/kg i.v. MF, PL to drug ratio 1:1 (FIG. 11A).
The test system of the next data set is Sprague Dawley male rats. The data set is described as follows: Moxifloxacin-induced QTc prolongation in rats, oral complex pre-treatment. Conditions: rat; Moxifloxacin 20 mg/kg i.v. over 20 minutes. Format: in vivo. An excerpt: Methods. The present inventors formulated the product in a complex mixture as an oral application in order to facilitate drug delivery in cancer patients being treated with oral LQTS inducing drugs. Preclinical evaluation of the oral application was done by instrumented Sprague Dawley male (250-300 g) rats. Cutaneous ECG leads were used to maximize T wave detection. The animals in groups of 3 rats were briefly anesthetized with a light dose of isoflurane, and a pre-treatment ECG was obtained to establish well-defined T waves, and to rule-out existing arrhythmic predispositions. Pre-treatment ECG profiles were normal.
A single dose of the oral complex in the ratio of 9:1 Moxifloxicin was vortexed continuously for 5 minutes to obtain an emulsion and immediately administered by gavage. Moxifloxacin, a broad spectrum antibiotic with documented LQTS activity, was formulated in DMSO and 2 hours afterwards infused intravenously (femoral canula) over 20 minutes at a starting dose of 2.8 mg/kg. ECGs were recorded from 5 minutes prior to and during the 20 minute infusion. Then the animals were dosed at 6.1 mg/kg over 20 minutes; then 20 mg/kg over 20 minutes. In a positive control group moxifloxacin was infused alone. In a second group of rats the complex was given orally 2 hours prior to the first dose of moxifloxacin. […]

Another data set relates to rabbits. The note with it: intravenous injection of 20 mg; cited from earlier work.
In another data set the test system is HEK293 cell. Conditions: 20 μM, 24 h incubation; cited from earlier work.

Consider ten molecules from US10258691B2 (SignPath Pharma Inc., priority 2014, dated 2019).

The term inhibition denotes the share of the control response that was lost under treatment.

Each structure is given as a SMILES string. “And” between values parts separate entries of the source, which are not always exact repeats. Equal entries are not always repeated. “Also recorded” adds a separate entry of the source. Structures can show the parent of a compound that is named as a salt.

Take `CCCCCCCCCC(=O)OC[C@@H](O)COP(=O)([O-])OCC(O)CO.[Na+]` (mixture of isomers) [10:0 LysoPG, 1-decanoyl-2-hydroxy-sn-glycero-3-[phospho-rac-(1-glycerol)] sodium salt]: at hERG [1], the “protective effect against hERG inhibition by Nilotinib (in words)” value is “prevented the inhibition” and the “inhibition of the hERG tail current (in words)” value was “did not cause any inhibition”.

`CCCCCCCCCCCC(=O)OC[C@@H](O)COP(=O)([O-])OCC(O)CO.[Na+]` (mixture of isomers) [12:0 LysoPG, 1-dodecanoyl-2-hydroxy-sn-glycero-3-[phospho-rac-(1-glycerol)] sodium salt]: on hERG [1], the “protective effect against hERG inhibition by Nilotinib (in words)” value is given as “prevented the inhibition” and the “inhibition of the hERG tail current (in words)” value is recorded as “did not cause any inhibition”.

`CCCCCCCCCCCCCC(=O)OC[C@@H](O)COP(=O)(O)OCC(O)CO` (mixture of isomers) [14:0 LysoPG, 1-myristoyl-2-hydroxy-sn-glycero-3-[phospho-rac-(1-glycerol)] sodium salt]: on hERG [2], the “inhibition of the hERG tail current density (in words)” value is “did not cause any inhibition”, the “Corrected Normalized Current Density” value stood at 1.124, the “Normalized Current Density” value came to 0.930 and the “protection against hERG inhibition caused by Nilotinib (in words)” value is “protects against hERG inhibition”. Also, the “protective effect against hERG inhibition by Nilotinib (in words)” value at hERG [1] (listed as 14:0 Lyso PG, sodium salt) is recorded as “higher protective”. At hERG [1] (sodium salt), the “protective effect against hERG inhibition by Nilotinib (in words)” value was “prevented the inhibition; also recorded: most potent”. Moreover, the “inhibition of the hERG tail current (in words)” value on hERG [1] is “did not cause any inhibition”.

Regarding `CCCCCCCCCCCCCCCC(=O)OC[C@@H](O)COP(=O)([O-])OCC(O)CO.[Na+]` (mixture of isomers) [16:0 LysoPG, 1-palmitoyl-2-hydroxy-sn-glycero-3-[phospho-rac-(1-glycerol)] sodium salt], the “protective effect against hERG inhibition by Nilotinib (in words)” value is on record as “higher protective” on hERG [1] (listed as 16:0 Lyso PG, sodium salt) and “prevented the inhibition; also recorded: most potent” at hERG [1] (sodium salt). In addition, the “inhibition of the hERG tail current (in words)” value on hERG [1] is “did not cause any inhibition”.

On to `CCCCCCCCCCCCCCCCCC(=O)OC[C@@H](O)COP(=O)([O-])OCC(O)CO.[Na+]` (mixture of isomers) [18:0 LysoPG, 1-stearoyl-2-hydroxy-sn-glycero-3-[phospho-rac-(1-glycerol)] sodium salt], for which, on hERG [1], the “protective effect against hERG inhibition by Nilotinib (in words)” value is given as “prevented the inhibition” and the “inhibition of the hERG tail current (in words)” value is “did not cause any inhibition”.

Consider `CCCCCCCCCCCCCC(=O)OCCOP(=O)(O)OCC(O)CO.N` (centres unmarked) [14:0 EGPG, 2,3-dihydroxypropyl(2-[tetradecanoyloxy]ethyl)phosphate (ammonium salt)], for which the “mitigation of MF-induced QT prolongation (in words)” value in the data set on Male Hartley guinea pigs is recorded as “prevented the MF-induced QTs prolongation”. Moreover, on hERG [1] ((ammonium salt)), the “protective effect against hERG inhibition by Nilotinib (in words)” value is given as “prevented the inhibition; also recorded: higher protective”. The “inhibition of the hERG tail current (in words)” value on hERG [1] is on record as “did not cause any inhibition”.

As to `CCCCCCCCCCCCCC(=O)OC[C@H](COP(=O)([O-])OCC(O)CO)OC(=O)CCCCCCCCCCCCC.[Na+]` (some centres unmarked) [DMPG, 1,2-dimyristoyl-sn-glycero-3-[phosphoric-(1-glycerol)] (sodium salt)], on hERG [2], the “inhibition of the hERG tail current density (in words)” value is recorded as “did not cause any inhibition”, the “Corrected Normalized Current Density” value is given as 0.994 and the “Normalized Current Density” value is reported as 0.800. In addition, the “protection against hERG inhibition caused by Nilotinib (in words)” value on hERG [2] ((sodium salt)) is recorded as “protects against hERG inhibition; also recorded: abrogated the effects of nilotinib”. For the same molecule, in the data set with Male Hartley guinea pigs, the “mitigation of MF-induced QT prolongation (in words)” value is reported as “prevented the MF-induced QTs prolongation”.

Take `COc1c(N2C[C@@H]3CCCN[C@@H]3C2)c(F)cc2c(=O)c(C(=O)O)cn(C3CC3)c12` [Moxifloxacin]: the QTc prolongation in the data set with Male Hartley guinea pigs (20 mg/kg i.v. MF) is 35 ms; in the data set with Sprague Dawley male rats it was 48 ms and 55 ms.

For the molecule `Cc1cn(-c2cc(NC(=O)c3ccc(C)c(Nc4nccc(-c5cccnc5)n4)c3)cc(C(F)(F)F)c2)cn1` [Nilotinib, reference compound], the inhibition at 5 min, 1 μM at hERG [1] (human, HEK 293 cells stably transfected with hERG, pH 7.4, read-out: inhibition of the hERG tail current) is 70%.

With `COc1cc(/C=C/C(=O)/C=C(O)/C=C/c2ccc(O)c(OC)c2)ccc1O` [curcumin, Curcumin], in the data set on rabbits, the “cardiac repolarization manifested by QTc values” is given as “did not affect the cardiac repolarization”. Also, the HEK293 cell viability result in the data set on HEK293 cell is “reduced the HEK293 cell viability”.
